In ChEMBL document CHEMBL1151887 (Bioorg Med Chem, 2009):

How the values were obtained:
[1] = target: T1, Adenosine receptor A3 (Homo sapiens, UniProt P0DMS8); test: Displacement of [125I]I-AB-MECA from human recombinant adenosine A3 receptor expressed in CHO cells by liquid scintillation counting
T1 sequence (P0DMS8 whole entry): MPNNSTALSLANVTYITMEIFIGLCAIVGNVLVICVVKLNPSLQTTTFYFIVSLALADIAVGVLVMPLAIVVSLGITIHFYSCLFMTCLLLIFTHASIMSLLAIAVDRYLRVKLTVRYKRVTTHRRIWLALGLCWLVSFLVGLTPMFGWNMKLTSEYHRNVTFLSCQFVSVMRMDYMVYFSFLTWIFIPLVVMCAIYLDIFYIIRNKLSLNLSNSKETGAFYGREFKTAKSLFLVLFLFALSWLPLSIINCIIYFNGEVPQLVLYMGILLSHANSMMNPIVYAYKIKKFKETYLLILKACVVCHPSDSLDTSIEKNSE

[2] = target: T2, Adenosine receptor A2a (Homo sapiens, UniProt P29274); test: Displacement of [3H]CGS21680 from human recombinant adenosine A2a receptor expressed in HEK293 cells at 10 uM by liquid scintillation counting; assay type: cell-based
[3] = target: T3, Adenosine receptor A1 (Homo sapiens) (UniProt P30542); test: Displacement of [3H]NECA from human recombinant adenosine A1 receptor expressed in CHO cells at 10 uM by liquid scintillation counting; assay type: cell-based
T3 sequence (whole entry): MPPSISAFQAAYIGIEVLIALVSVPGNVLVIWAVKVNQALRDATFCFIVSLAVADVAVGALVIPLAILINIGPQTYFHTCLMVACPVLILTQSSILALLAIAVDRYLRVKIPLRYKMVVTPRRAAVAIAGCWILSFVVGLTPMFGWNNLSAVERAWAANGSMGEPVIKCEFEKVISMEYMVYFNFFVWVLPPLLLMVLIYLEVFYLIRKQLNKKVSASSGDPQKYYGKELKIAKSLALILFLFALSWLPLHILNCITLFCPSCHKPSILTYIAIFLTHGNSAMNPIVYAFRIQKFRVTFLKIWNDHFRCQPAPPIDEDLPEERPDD

[4] = target: T2, Adenosine receptor A2a; test: Displacement of [3H]CGS21680 from human recombinant adenosine A2a receptor expressed in HEK293 cells by liquid scintillation counting; assay type: cell-based
[5] = target: T4, Adenosine receptor A3 (Rattus norvegicus, UniProt P28647); test: Binding affinity to rat adenosine A3 receptor
T4 sequence (P28647 whole entry): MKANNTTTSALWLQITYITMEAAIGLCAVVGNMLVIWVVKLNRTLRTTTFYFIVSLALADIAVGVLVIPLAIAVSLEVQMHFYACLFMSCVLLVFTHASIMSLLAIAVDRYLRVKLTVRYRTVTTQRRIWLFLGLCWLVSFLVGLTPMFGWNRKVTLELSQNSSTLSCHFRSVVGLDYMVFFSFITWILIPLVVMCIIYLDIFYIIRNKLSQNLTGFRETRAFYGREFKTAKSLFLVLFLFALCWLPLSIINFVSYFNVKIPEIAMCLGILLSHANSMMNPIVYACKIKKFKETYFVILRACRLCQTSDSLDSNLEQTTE

T2 sequence (P29274 whole entry): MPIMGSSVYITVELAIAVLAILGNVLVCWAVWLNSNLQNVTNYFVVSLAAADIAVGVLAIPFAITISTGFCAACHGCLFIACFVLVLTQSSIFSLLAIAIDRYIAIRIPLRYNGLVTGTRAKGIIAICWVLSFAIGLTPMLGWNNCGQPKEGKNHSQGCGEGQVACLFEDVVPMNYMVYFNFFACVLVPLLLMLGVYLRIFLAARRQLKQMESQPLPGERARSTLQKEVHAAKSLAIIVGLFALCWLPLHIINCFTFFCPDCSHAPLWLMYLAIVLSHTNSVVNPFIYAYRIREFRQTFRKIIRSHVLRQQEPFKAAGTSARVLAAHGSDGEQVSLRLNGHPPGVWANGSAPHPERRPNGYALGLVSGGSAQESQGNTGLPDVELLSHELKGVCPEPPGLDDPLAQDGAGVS

Row | Ki [1] | inhibition [2] | inhibition [3] | Ki [4] | Ki [5] | SMILES
1 | 75 nM | – | – | 3630 nM | – | O[C@@H]1[C@H](O)CO[C@H]1n1cnc2c(NCc3cccc(Cl)c3)nc(Cl)nc21
2 | 284 nM | 42% | 43% | – | – | O[C@@H]1[C@H](O)CO[C@H]1n1cnc2c(NCc3cccc(F)c3)nc(Cl)nc21
3 | – | 43% | – | – | – | O[C@@H]1[C@H](O)CO[C@H]1n1cnc2c(NCc3cccc(I)c3)nc(Cl)nc21
4 | – | 30% | – | – | 82.8 nM | O[C@@H]1[C@H](O)CO[C@H]1n1cnc2c(NCc3cccc(Br)c3)nc(Cl)nc21

Continued, compound first:

Row | SMILES | Ki [1] | inhibition [2] | inhibition [3] | Ki [4] | Ki [5]
5 | CNc1ncnc2c1ncn2[C@@H]1OC[C@@H](O)[C@H]1O | 70.1 nM | 25% | 44% | – | –
6 | O[C@@H]1[C@H](O)CO[C@H]1n1cnc2c(NCc3cccc(Br)c3)ncnc21 | 59 nM | – | – | 1400 nM | –
7 | O[C@@H]1[C@H](O)CO[C@H]1n1cnc2c(NCc3cccc(I)c3)ncnc21 | 90.2 nM | – | – | 997 nM | –
8 | O[C@@H]1[C@H](O)CO[C@H]1n1cnc2c(NCc3cccc(Cl)c3)ncnc21 | 76.1 nM | – | – | 3410 nM | –
9 | CNc1nc(Cl)nc2c1ncn2[C@@H]1OC[C@@H](O)[C@H]1O | 37.5 nM | 15% | 49% | – | –
10 | O[C@@H]1[C@H](O)CO[C@H]1n1cnc2c(NCc3cccc(F)c3)ncnc21 | 537 nM | – | 36% | 6560 nM | –
